According to patent US9597342B2 (UWM Research Foundation, Inc., priority 2011, dated 2017):
Marks after values point to notes of the source that are not given here.

Assays:
[1] = In vitro metabolic stability using human liver microsomes; details: for % remaining: at both 1 and 10 μM
Protocol: The metabolic stability of 15 GABAA receptor ligands using human liver microsomes was studied. The test articles were incubated at two concentrations (1 and 10 μM) and aliquots (100 μl) were removed at various time points (0, 15, 30 and 60 minutes), and analyzed by LC-MS/MS.
(§1) The test articles were incubated at two concentrations (1 and 10 μM) in 96-well plate format with active or heat-inactivated human liver microsomes and cofactors. Aliquots were removed at 0, 15, 30 and 60 minutes and mixed with acetonitrile containing internal standard for analysis. Samples were extracted and assayed using a liquid chromatography/tandem mass spectrometry (LC-MS/MS) analytical method.
Pooled human liver microsomes (Lot #38289, pool of 150 different male and female donor livers) were obtained from BD Biosciences Corporation (Woburn, Mass.). Microsomes were stored at ˜−135° C. until use.
(§2) The test articles (1 and 10 μM) were incubated with human liver microsomes (0.5 mg protein/ml) and appropriate cofactors (2.5 mM NADPH and 3.3 mM magnesium chloride) in 100 mM phosphate buffer, pH 7.4 (0.1% final DMSO), in a 37° C. water bath. Incubations with all compounds were initiated with the addition of microsomes. At selected time points (0, 15, 30 and 60 min), a single 100 μl aliquot was removed from each sample and mixed with 200 μl of chilled acetonitrile containing internal standard. Following brief vortexing and centrifugation, the samples were further diluted into a 96-well plate for subsequent LC-MS/MS analysis. All samples were assayed in duplicate.
(§3) Experimental controls consisted of: a) incubation of all components except test article for 0 and 60 min, b) incubation of midazolam (positive control) at 10 μM for 0, 15, 30 and 60 min, and c) incubation of 1 and 10 μM test article and 10 μM midazolam with heat-inactivated microsomes (0.5 mg protein/ml) for 0 and 60 min. All controls were assayed in duplicate.
Samples were analyzed by LC-MS/MS in multiple reaction monitoring mode using positive-ion electrospray ionization. The details of the LC-MS/MS method can be provided upon request.
(§4) Data from the metabolic stability assays were transferred to and processed in a Microsoft Excel spreadsheet. To determine metabolic stability, the percent remaining at each time point was calculated by dividing the peak area ratio of test article/internal standard at each time point by the peak area ratio at 0 min multiplied by 100.

[2] = Incubation with heat-inactivated human liver microsomes (stability control); details: 60 min
Protocol: as §1, §2, §3, §4

SMILES	melting point	Mean % Remaining vs T = 0 min, Human Liver Microsomes ([1]; 1 μM, 15 min) [%]	Mean % Remaining vs T = 0 min, Human Liver Microsomes ([1]; 1 μM, 30 min) [%]	Mean % Remaining vs T = 0 min, Human Liver Microsomes ([1]; 1 μM, 60 min)	Mean % Remaining vs T = 0 min, Human Liver Microsomes ([1]; 10 μM, 15 min) [%]	Mean % Remaining vs T = 0 min, Human Liver Microsomes ([1]; 10 μM, 30 min) [%]	Mean % Remaining vs T = 0 min, Human Liver Microsomes ([1]; 10 μM, 60 min) [%]	Mean % Remaining vs T = 0 min, with HI (Heat Inactivated) Microsomes ([2]; 1 μM) [%]	Mean % Remaining vs T = 0 min, with HI (Heat Inactivated) Microsomes ([2]; 10 μM) [%]	other results
O=C(OCCCCOC(=O)c1ncn2c1[C@@H]1CCCN1C(=O)c1cc(Br)ccc1-2)c1ncn2c1C1CCCN1C(=O)c1cc(Br)ccc1-2 (some centres unmarked)	166 to 171 °C	–	–	–	–	–	–	–	–	–
O=C(OCCCCCOC(=O)c1ncn2c1[C@@H]1CCCN1C(=O)c1cc(Br)ccc1-2)c1ncn2c1C1CCCN1C(=O)c1cc(Br)ccc1-2 (some centres unmarked)	157 to 161 °C	–	–	–	–	–	–	–	–	–
C#Cc1ccc2c(c1)C(=O)N1CCCC1c1c(C(=O)OCCCOC(=O)c3ncn4c3CN(C)C(=O)c3cc(Cl)ccc3-4)ncn1-2 (centres unmarked)	174 to 176 °C	–	–	–	–	–	–	–	–	–
C#Cc1ccc2c(c1)C(=O)N1CCCC1c1c(C(=O)N3CCN(C(=O)c4ncn5c4[C@@H]4CCCN4C(=O)c4cc(C#C)ccc4-5)CC3)ncn1-2 (some centres unmarked)	206 to 211 °C	–	–	–	–	–	–	–	–	–
C#Cc1ccc2c(c1)C(c1ccccc1)=NCc1c(C(=O)NC)ncn1-2	237 to 238 °C	–	–	–	–	–	–	–	–	–
C#Cc1ccc2c(c1)C(c1ccccc1F)=N[C@@H](C)c1c(C(=O)OCCCCCOC(=O)c3ncn4c3CN(C)C(=O)c3cc(Cl)ccc3-4)ncn1-2	157 to 162 °C (dec.)	–	–	–	–	–	–	–	–	–
C#Cc1ccc2c(c1)C(c1ccccc1F)=N[C@@H](C)c1c(C(=O)OCCCCOC(=O)c3ncn4c3[C@H](C)N=C(c3ccccc3F)c3cc(C#C)ccc3-4)ncn1-2	158 to 160 °C	–	–	–	–	–	–	–	–	–
C#Cc1ccc2c(c1)C(c1ccccc1F)=N[C@@H](C)c1c(C(=O)OCCCCCOC(=O)c3ncn4c3[C@H](C)N=C(c3ccccc3F)c3cc(C#C)ccc3-4)ncn1-2	150 to 155 °C	–	–	–	–	–	–	–	–	–
C#Cc1ccc2c(c1)C(c1ccccc1F)=N[C@@H](C)c1c(C(=O)N3CCN(C(=O)c4ncn5c4[C@H](C)N=C(c4ccccc4F)c4cc(C#C)ccc4-5)CC3)ncn1-2	180 to 190 °C	–	–	–	–	–	–	–	–	–
C#Cc1ccc2c(c1)C(c1ccccc1)=NCc1c(C(=O)OCCCCCOC(=O)c3ncn4c3CN(C)C(=O)c3cc(Cl)ccc3-4)ncn1-2	155 to 160 °C (dec.)	–	–	–	–	–	–	–	–	–
C#Cc1ccc2c(c1)C(c1ccccc1F)=NCc1c(C(=O)OCCCCCOC(=O)c3ncn4c3CN(C)C(=O)c3cc(Cl)ccc3-4)ncn1-2	125 to 130 °C	–	–	–	–	–	–	–	–	–
C#Cc1ccc2c(c1)C(c1ccccc1)=NCc1c(C(=O)OCCCCCOC(=O)c3ncn4c3CN=C(c3ccccc3F)c3cc(C#C)ccc3-4)ncn1-2	145 to 150 °C	–	–	–	–	–	–	–	–	–
CN1Cc2c(C(=O)OCCCCOC(=O)c3ncn4c3CN(C)C(=O)c3cc(Cl)ccc3-4)ncn2-c2ccc(Cl)cc2C1=O	308 to 312 °C	–	–	–	–	–	–	–	–	–
CN1Cc2c(C(=O)OCCCCCOC(=O)c3ncn4c3CN(C)C(=O)c3cc(Cl)ccc3-4)ncn2-c2ccc(Cl)cc2C1=O	146 to 152 °C	–	–	–	–	–	–	–	–	–
CN1Cc2c(C(=O)N3CCN(C(=O)c4ncn5c4CN(C)C(=O)c4cc(Cl)ccc4-5)CC3)ncn2-c2ccc(Cl)cc2C1=O	367 to 374 °C	–	–	–	–	–	–	–	–	–
C#Cc1ccc2c(c1)C(c1ccccn1)=NCc1c(C(=O)OCC)ncn1-2 [HZ-166]	–	106	98.4	80.4%	104	90.7	76.3	94.1	95.4	–
C#Cc1ccc2c(c1)C(c1ccccc1F)=NCc1c(C(=O)OCC)ncn1-2 [JY-XHe-053]	–	13.5	2.13	0.27%	20.0	3.60	0.56	102	111	% remaining ([1]; 15 min): less than 20%
Cc1ncc2n1-c1ccc(Cl)cc1C(c1ccccc1F)=NC2 [Midazolam]	–	–	–	–	–	–	–	–	–	Mean % Remaining vs T = 0 min, Human Liver Microsomes ([1]; 10 μM, 15 min, positive control, data from three experiments): 36.9 ± 13.5%; Mean % Remaining vs T = 0 min, Human Liver Microsomes ([1]; 10 μM, 30 min, positive control, data from three experiments): 18.7 ± 7.3%; Mean % Remaining vs T = 0 min, Human Liver Microsomes ([1]; 10 μM, 60 min, positive control, data from three experiments): 4.2 ± 2.2%; metabolism observed (in words) ([1]; active human liver microsomes, up to 60 min): consistently metabolized; Mean % Remaining vs T = 0 min, with HI (Heat Inactivated) Microsomes ([2]; 10 μM, positive control, data from three experiments): 104 ± 1.2%
C#Cc1ccc2c(c1)C(c1ccccc1F)=N[C@H](C)c1c(C(=O)OCC)ncn1-2 [SH-053-2′F-RCH3]	–	86.7	86.7	86.9%	97.9	105	105	115	117	–
C#Cc1ccc2c(c1)C(c1ccccc1F)=N[C@@H](C)c1c(C(=O)OCC)ncn1-2 [SH-053-2′F-SCH3]	–	6.18	0.85	3.85^d %	11.7	1.72	0.20	110	114	% remaining ([1]; 15 min): less than 12%
C#Cc1ccc2c(c1)C(c1ccccc1)=NCc1c(C(=O)O)ncn1-2 [XHe-II-053 Acid]	–	108	106	111%	95.6	95.0	95.0	106	97.4	–
C#Cc1ccc2c(c1)C(c1ccccc1)=NCc1c(C(=O)OCC)ncn1-2 [XHe-II-053]	–	41.4	11.1	1.46%	47.6	13.9	1.74	107	102	–
C#Cc1ccc2c(c1)C(c1ccccn1)=NCc1c(-c3nc(C(C)C)no3)ncn1-2 [ZJW-II-040, 5-(8-Ethynyl-6-(pyridin-2-yl)-4H-Benzo-[f]-Imidazo-[1,5-a]-[1,4]-Diazepine-3-yl)-3-Isopropyl-1,2,4-Oxadiazole]	–	97.8	98.7	89.4%	106	99.3	95.1	113	92.0	–
C#Cc1ccc2c(c1)C(c1ccccn1)=NCc1c(C(=O)SC)ncn1-2 [ZJW-II-065, S-Methyl-8-Ethynyl-Methyl-6-(Pyridine-2-yl)-4H-Benzo-[f]-Imidazo-[1,5-a]-[1,4]-Diazepine-3-Carbothioate]	–	98.4	97.0	82.5%	111	106	95.6	105	110	–
